Each block holds one compound with its values, some of them ahead of it. The source made the active and inactive calls.
Columns and labels:
Fatty acid synthase [1] = target: T1, Fatty acid synthase (Homo sapiens, UniProt P49327); assay: FAS thioesterase domain inhibitors, dose response, biochemical, endpoint fluorescence intensity, uHTS hits (AID 624327); assay type: functional;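 note: fluorescence from hydrolysis of an O-methyl fluorescein acyl ester substrate by the enzyme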
Fatty acid synthase [2] = target: T1, Fatty acid synthase; assay: FAS thioesterase domain inhibitors, dose response, biochemical, kinetic fluorescence intensity (AID 624326); assay type: functional;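 note: rate of fluorescence rise from hydrolysis of a fluorogenic O-methyl fluorescein ester substrate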
Beta Lactamase = Beta Lactamase (Pseudomonas aeruginosa, UniProt Q932Y6); assay: beta-lactamase reporter inhibitor potency, dose response, artefact control for NOD2-RIPK2 interaction inhibitor project, BLA reporter cells, FRET fluorescence (AID 651552); assay type: functional, cell-based
[3] = Fluorescence-based cell-based high throughput dose response assay for inhibitors of the interaction of nucleotide-binding oligomerization domain containing 2 (NOD2) and the receptor-interacting serine-threonine kinase 2 (RIPK2).; assay type: functional; conditions: Homo sapiens
[4] = HeLa cell cytotoxicity, dose response, cytotoxicity control for MgcRacGAP inhibitor project (AID 624300); assay type: functional
[5] = A549 cell cytotoxicity, dose response, cytotoxicity control, plate reader, cherry-pick, antagonist series (AID 743412); assay type: functional, cell-based
[6] = Luminescence Cell-Based Dose Confirmation HTS to Identify Inhibitors of Platelet Dense Granule Release. [Related pubchem assays: 1663 (Primary HTS), 1678 (Summary of Project)]; assay type: functional
[7] = LGR2 antagonists, dose response, cell-based, HEK293, CRE-luciferase reporter, cherry pick, set 2 (AID 743343); assay type: functional;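 note: transfected cells were stimulated with diluted bursicon conditioned medium after compound addition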
[8] = MC4R antagonists, dose response, counter-screen for LGR2 antagonist project, cell-based, plate reader, cherry pick (AID 743444); assay type: functional;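 note: transfected HEK 293 cells stimulated with alpha-MSH peptide; potency of inhibitors of the alpha-MSH evoked signal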
Aminopeptidase N = target: T2, Aminopeptidase N (Plasmodium falciparum FcB1/Columbia, UniProt O96935); assay: P. falciparum M1AAP inhibitors, biochemical, fluorogenic H-Leu-NHMec substrate, 1536-well (AID 1445); design: species or system Plasmodium falciparum 3D7, 3D7
T2 sequence (O96935 whole entry): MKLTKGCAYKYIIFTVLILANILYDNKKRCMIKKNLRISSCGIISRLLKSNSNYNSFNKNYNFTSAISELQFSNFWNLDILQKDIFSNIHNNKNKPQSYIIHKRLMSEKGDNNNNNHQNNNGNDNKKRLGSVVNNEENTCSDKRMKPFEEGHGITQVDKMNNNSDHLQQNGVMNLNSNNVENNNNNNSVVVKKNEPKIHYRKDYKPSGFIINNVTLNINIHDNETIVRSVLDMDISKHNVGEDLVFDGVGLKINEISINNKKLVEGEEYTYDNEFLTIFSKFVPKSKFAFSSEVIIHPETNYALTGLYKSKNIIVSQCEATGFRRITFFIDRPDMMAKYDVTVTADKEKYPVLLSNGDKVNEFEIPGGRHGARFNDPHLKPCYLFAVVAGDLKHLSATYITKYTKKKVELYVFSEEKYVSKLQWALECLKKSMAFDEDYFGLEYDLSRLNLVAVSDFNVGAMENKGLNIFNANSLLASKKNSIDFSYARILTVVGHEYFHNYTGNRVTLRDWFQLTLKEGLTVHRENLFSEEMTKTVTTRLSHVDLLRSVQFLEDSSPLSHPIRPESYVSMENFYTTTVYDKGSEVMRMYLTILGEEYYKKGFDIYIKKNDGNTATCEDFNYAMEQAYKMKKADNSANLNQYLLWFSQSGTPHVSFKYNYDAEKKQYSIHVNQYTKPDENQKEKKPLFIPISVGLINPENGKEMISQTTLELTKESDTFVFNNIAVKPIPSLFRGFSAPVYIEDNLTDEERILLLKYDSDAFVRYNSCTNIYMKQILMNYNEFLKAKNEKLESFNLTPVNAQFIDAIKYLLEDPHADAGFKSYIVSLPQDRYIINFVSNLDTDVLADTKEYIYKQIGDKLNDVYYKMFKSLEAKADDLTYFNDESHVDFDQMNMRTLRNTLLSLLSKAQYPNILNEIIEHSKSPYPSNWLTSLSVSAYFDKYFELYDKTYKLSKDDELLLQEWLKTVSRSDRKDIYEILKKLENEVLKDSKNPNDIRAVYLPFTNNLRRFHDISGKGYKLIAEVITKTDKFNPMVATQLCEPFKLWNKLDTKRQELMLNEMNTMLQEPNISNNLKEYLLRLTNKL

[9] = target: Luciferin 4-monooxygenase (Photinus pyralis, UniProt P08659); assay: firefly luciferase enzyme inhibitors, dose response, biochemical, luminescence (AID 1891)
[10] = target: T3, Rac GTPase-activating protein 1 (Homo sapiens, UniProt Q9H0H5); assay: MgcRacGAP GTPase-activating activity inhibitors, confirmation, biochemical, ADP Hunter fluorescence, primary and confirmatory (AID 624330); assay type: functional
T3 sequence (Q9H0H5 whole entry): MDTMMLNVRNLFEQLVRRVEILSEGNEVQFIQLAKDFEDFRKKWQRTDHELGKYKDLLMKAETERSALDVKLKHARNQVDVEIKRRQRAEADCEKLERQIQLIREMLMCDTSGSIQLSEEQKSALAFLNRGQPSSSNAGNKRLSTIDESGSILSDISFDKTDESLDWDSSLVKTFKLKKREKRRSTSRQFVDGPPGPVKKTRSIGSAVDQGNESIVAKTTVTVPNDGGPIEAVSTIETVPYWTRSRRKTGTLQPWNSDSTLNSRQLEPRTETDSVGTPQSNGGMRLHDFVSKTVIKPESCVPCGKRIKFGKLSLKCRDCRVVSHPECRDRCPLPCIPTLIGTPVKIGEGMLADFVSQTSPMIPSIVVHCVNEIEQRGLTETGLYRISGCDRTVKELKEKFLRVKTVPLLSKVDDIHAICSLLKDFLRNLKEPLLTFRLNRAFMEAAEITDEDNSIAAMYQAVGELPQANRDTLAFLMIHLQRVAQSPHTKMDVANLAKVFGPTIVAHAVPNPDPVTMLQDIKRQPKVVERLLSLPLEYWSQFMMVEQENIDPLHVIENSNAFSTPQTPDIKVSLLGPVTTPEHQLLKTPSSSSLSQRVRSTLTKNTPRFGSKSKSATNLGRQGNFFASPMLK

[11] = CRF-BP/CRF-R2 complex antagonists, dose response, cell-based, uHTS hits, 384-well (AID 651639); assay type: functional, Homo sapiens; conditions: read-out: IC50_Mean
[12] = target: T4, Corticotropin-releasing factor receptor 2/Corticotropin-releasing factor-binding protein (Homo sapiens, UniProt P24387+Q13324); assay: activators of CRF receptor 2 with binding protein – uHTS hits, confirmation (AID 602473); assay type: functional; conditions: read-out: EC50_Mean
T4 sequence (Q13324 whole entry): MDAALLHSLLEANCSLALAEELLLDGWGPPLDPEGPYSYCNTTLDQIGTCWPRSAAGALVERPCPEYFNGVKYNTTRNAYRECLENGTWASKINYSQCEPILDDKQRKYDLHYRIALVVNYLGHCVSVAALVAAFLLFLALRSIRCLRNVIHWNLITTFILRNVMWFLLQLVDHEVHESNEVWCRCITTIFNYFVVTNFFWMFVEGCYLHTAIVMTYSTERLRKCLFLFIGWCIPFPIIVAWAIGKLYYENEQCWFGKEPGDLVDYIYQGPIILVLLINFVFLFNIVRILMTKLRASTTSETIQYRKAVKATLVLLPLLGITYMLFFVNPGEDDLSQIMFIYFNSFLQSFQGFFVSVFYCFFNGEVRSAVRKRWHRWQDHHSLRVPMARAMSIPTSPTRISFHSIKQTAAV
T4 sequence (P24387 whole entry): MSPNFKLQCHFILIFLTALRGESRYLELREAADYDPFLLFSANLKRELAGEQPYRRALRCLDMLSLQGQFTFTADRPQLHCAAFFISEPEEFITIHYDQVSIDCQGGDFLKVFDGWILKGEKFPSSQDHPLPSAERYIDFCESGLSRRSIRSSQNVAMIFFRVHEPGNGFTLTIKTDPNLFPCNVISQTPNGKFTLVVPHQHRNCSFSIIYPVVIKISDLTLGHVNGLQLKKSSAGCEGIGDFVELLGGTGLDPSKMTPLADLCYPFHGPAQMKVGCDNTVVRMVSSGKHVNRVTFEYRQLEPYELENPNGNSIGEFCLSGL

INS1 = assay: beta cell apoptosis inhibitors, cytokine rescue, dose response, luminescence, retest (AID 449756); assay type: functional, cell-based; conditions: Rattus norvegicus;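 note: cell death triggered by IL-1 beta plus TNF-alpha plus IFN-gamma mixture; protective hits raise ATP signal compared with cytokine alone wells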
[13] = target: T4, Corticotropin-releasing factor receptor 2/Corticotropin-releasing factor-binding protein; assay: Dose Response confirmation of uHTS hits for small molecule antagonists of the CRF-binding protein and CRF-R2 receptor complex.; assay type: functional; conditions: read-out: IC50_Mean
[14] = target: 26S proteasome non-ATPase regulatory subunit 14 (Homo sapiens, UniProt O00487); assay: inhibition of proteasome subunit RPN11 – biochemical, fluorescence polarization, uHTS hits, confirmation (AID 602368); assay type: functional
[15] = target: 72 kDa type IV collagenase (Homo sapiens, UniProt P08253); assay: Dose Response validation of uHTS RPN11 inhibitor hits using a MMP-2 Fluorescence assay.; assay type: functional
Prothrombin = Prothrombin (Bos taurus, UniProt P00735); assay: thrombin inhibition, dose response, biochemical, fluorescence polarization, uHTS hits (AID 602369); assay type: functional
[16] = target: Photoreceptor-specific nuclear receptor (Homo sapiens, UniProt Q9Y5X4); assay type: functional, cell-based;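 note: CHO-S cells with Gal4-NCOR and VP16-NR2E3 two-hybrid luciferase reporter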
Photoreceptor-specific nuclear receptor, sequence (Q9Y5X4 whole entry, the tested form may be a part): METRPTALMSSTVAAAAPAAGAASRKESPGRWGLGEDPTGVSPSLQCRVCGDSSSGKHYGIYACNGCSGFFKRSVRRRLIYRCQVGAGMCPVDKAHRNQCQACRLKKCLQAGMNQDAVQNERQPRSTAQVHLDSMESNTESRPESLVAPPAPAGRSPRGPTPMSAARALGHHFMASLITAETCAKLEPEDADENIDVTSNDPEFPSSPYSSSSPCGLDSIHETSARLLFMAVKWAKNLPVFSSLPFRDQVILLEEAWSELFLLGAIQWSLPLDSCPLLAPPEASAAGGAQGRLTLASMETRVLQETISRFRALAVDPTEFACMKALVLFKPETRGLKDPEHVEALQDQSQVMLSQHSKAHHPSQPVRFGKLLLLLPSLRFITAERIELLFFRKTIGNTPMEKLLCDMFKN

T1 sequence (P49327 whole entry, the tested form may be a part): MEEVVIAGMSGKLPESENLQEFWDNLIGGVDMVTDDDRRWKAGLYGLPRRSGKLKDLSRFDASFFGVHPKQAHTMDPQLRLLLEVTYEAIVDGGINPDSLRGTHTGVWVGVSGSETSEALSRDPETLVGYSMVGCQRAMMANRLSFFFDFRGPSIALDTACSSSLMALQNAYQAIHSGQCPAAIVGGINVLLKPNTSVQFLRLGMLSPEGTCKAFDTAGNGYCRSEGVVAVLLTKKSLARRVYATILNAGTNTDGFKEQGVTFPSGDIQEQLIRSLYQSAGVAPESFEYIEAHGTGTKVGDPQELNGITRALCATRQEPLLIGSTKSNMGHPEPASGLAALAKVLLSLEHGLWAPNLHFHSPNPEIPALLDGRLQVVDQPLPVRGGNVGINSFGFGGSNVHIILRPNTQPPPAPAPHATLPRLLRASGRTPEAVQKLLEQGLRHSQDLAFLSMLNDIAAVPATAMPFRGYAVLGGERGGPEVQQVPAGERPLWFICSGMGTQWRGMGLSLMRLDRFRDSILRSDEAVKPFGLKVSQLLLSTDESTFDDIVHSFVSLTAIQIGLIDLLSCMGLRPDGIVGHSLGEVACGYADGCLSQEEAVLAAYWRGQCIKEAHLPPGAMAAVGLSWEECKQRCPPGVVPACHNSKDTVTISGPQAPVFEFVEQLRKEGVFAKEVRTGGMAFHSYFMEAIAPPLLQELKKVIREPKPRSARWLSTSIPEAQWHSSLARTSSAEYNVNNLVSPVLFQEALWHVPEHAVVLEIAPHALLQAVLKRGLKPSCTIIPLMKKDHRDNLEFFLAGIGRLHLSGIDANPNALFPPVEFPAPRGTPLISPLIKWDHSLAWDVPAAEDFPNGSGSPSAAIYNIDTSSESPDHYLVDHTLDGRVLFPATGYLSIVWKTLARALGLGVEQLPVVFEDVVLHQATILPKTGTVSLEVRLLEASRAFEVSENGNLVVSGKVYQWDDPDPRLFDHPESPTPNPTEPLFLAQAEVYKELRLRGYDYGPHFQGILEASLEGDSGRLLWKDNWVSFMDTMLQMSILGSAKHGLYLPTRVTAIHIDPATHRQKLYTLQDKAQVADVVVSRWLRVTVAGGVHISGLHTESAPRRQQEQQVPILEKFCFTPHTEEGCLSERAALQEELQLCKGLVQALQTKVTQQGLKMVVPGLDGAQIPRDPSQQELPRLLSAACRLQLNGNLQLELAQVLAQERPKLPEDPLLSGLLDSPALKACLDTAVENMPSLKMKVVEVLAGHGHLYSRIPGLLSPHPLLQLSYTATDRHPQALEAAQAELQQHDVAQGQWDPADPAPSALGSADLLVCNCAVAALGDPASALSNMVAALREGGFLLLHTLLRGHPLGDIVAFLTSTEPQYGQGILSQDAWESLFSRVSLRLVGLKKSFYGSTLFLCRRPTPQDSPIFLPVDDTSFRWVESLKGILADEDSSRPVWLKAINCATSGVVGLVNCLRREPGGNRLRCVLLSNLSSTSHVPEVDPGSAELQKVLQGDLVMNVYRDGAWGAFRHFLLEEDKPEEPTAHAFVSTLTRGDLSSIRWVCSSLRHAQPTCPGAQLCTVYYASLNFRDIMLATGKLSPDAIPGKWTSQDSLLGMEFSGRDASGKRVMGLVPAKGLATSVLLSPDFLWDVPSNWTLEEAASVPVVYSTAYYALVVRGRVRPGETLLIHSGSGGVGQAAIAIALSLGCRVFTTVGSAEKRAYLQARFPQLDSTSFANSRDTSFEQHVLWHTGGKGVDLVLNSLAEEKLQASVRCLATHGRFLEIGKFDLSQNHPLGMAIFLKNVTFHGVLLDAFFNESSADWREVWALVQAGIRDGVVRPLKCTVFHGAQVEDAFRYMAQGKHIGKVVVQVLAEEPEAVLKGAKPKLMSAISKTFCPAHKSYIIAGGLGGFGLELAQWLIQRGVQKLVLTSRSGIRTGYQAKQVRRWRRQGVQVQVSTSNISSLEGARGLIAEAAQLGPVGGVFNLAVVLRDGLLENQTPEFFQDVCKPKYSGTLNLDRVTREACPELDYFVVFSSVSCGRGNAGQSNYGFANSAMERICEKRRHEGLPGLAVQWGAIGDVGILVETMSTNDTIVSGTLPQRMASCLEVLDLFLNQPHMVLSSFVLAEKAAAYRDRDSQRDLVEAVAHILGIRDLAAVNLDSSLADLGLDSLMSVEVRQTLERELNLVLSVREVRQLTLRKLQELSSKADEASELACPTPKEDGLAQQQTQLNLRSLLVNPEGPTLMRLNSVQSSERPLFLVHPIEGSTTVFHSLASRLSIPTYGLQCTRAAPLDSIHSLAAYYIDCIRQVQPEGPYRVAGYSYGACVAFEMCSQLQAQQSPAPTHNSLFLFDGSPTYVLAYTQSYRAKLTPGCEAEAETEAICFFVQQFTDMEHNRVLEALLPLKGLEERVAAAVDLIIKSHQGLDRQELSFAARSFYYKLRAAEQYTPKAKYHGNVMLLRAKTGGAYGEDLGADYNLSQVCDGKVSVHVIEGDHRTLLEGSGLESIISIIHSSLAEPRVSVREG
Luciferin 4-monooxygenase, sequence (P08659 whole entry): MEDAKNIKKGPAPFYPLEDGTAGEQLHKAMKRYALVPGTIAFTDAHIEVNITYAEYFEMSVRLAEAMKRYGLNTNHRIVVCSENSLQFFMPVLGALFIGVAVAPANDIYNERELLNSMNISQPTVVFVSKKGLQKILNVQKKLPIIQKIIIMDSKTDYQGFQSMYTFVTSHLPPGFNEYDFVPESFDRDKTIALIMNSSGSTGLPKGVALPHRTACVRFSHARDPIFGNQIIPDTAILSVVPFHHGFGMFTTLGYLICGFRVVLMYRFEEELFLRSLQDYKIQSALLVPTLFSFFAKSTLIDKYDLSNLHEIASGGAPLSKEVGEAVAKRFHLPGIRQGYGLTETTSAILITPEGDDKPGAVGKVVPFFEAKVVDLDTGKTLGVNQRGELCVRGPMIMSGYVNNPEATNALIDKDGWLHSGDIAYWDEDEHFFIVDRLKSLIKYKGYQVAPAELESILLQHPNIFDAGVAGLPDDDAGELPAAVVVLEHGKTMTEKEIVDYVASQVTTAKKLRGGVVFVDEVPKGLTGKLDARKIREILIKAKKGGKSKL
Beta Lactamase, sequence (Q932Y6 whole entry, the tested form may be a part): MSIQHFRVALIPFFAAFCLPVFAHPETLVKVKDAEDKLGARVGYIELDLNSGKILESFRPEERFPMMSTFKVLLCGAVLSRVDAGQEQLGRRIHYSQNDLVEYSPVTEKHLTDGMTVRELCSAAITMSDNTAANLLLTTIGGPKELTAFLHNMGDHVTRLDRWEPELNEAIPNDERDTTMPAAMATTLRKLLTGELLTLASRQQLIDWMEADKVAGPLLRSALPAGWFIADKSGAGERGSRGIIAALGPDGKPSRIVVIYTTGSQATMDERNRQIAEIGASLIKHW
26S proteasome non-ATPase regulatory subunit 14, sequence (O00487 whole entry): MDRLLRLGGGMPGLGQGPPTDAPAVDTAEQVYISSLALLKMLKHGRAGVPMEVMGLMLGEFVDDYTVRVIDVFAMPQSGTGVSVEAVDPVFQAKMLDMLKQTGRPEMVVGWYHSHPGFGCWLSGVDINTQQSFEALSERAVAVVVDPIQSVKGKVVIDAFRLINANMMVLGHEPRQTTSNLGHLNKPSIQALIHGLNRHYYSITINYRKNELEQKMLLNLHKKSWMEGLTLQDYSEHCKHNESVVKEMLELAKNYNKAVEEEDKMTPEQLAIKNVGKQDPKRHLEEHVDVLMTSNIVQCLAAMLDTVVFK
72 kDa type IV collagenase, sequence (P08253 whole entry): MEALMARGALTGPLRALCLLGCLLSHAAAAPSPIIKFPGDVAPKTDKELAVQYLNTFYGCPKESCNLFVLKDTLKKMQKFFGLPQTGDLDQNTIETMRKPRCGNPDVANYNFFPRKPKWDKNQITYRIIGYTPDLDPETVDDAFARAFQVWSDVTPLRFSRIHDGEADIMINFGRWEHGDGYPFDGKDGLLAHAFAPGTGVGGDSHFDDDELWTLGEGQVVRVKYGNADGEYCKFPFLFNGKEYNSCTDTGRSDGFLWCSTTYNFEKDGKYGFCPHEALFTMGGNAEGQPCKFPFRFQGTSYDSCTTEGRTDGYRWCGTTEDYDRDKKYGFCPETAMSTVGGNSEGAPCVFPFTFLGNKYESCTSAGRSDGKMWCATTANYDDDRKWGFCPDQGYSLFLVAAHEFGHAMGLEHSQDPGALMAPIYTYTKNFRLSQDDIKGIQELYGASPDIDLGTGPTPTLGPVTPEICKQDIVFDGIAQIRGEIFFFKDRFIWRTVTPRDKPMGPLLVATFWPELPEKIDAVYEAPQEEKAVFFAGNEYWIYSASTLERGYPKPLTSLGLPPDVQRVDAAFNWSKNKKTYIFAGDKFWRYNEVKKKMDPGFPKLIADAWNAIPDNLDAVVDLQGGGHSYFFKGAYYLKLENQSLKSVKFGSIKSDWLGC

SMILES: CCOC(=O)[C@]12Cc3cc(Cl)ccc3[C@H]1N(C1CCCCC1)C(=O)c1cc(OC)ccc12
IC50 (Fatty acid synthase [1]): 2.71 µM (active)
IC50 (Fatty acid synthase [2]): 3.04 µM (active)
IC50 (Beta Lactamase): 16.8 µM (inactive)
IC50 [3]: 11.7 µM (inactive)

SMILES: Nc1ccc(-c2nc3ccc(N)cc3s2)cc1
CC50 [4]: 100 µM (active)
AC50 [5]: > 52 µM (inactive)
EC50 [6]: 17.5 µM (active)
AC50 [7]: 7.8 µM (active)
AC50 [8]: 7.01 µM (active)
IC50 (Aminopeptidase N): 21.3 µM (active)
EC50 [9]: 8.6 µM (active)
IC50 [10]: 70.2 µM (active)

SMILES: CC(C)Cn1c(SCC(=O)N2CCc3ccccc3C2)nc2cc(Cl)ccc2c1=O
IC50 [11]: 6.45 µM (active)
EC50 [12]: > 53 µM (inactive)
AC50 (INS1): 7.24 µM (active)
IC50 [13]: 6.92 µM (active)

More lines, main results first:

IC50 [10]: 156 µM (active)
SMILES: c1ccc(CCNCCCOc2cccc3ccccc23)cc1
CC50 [4]: 75.9 µM (active)

IC50 [14]: 30.2 µM (active)
IC50 [15]: > 100 µM (inactive)
IC50 (Prothrombin): 43.2 µM (active)
SMILES: CC(=O)N1CCc2cc(NN=C3C(=O)CCCC3=O)ccc21

IC50 [16]: 5.7 µM (active)
SMILES: Nc1nc(N)nc(-c2cc(O)ccc2O)n1

From ChEMBL document CHEMBL1201862, “PubChem BioAssay data set” (2004)
